Assay results reported in the supplement of paper PMC11061612.

Columns and labels:
Olaparib = compound: O=C(c1cc(Cc2n[nH]c(=O)c3ccccc23)ccc1F)N1CCN(C(=O)C2CC2)CC1 [Olaparib]; details: max 10 µM
Procedure, shortened: (§1)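 Following 24 hours at 37°C and 5% CO2, cancer cell lines in 1536-well plates with 7.5 μl DMEM/F12 or RPMI and 10% FBS were dosed for 72 hours, final DMSO typically being 0.2%. CellTiter-Glo 2.0 luminescence, scaled between blank-well and DMSO-well means, gave the viability readout. Dose responses were fitted to a two-parameter logistic curve with a non-linear mixed effects model, and the single-agent IC50 was derived from this fit.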

Savolitinib = compound: C[C@@H](c1ccc2nccn2c1)n1nnc2ncc(-c3cnn(C)c3)nc21 [Savolitinib]; details: max 1 µM
Procedure, shortened: as §1

AZD8186 = compound: C[C@@H](Nc1cc(F)cc(F)c1)c1cc(C(=O)N(C)C)cc2c(=O)cc(N3CCOCC3)oc12 [AZD8186]; details: max 3 µM
Procedure, shortened: as §1

AZD0156 = compound: CN(C)CCCOc1ccc(-c2ccc3ncc4c(c3c2)n(C2CCOCC2)c(=O)n4C)cn1 [AZD0156]; details: max 3 µM
Procedure, shortened: as §1

Crizotinib = compound: C[C@@H](Oc1cc(-c2cnn(C3CCNCC3)c2)cnc1N)c1c(Cl)ccc(F)c1Cl [Crizotinib]; details: max 10 µM
Procedure, shortened: as §1

Alisertib = compound: COc1cc(Nc2ncc3c(n2)-c2ccc(Cl)cc2C(c2c(F)cccc2OC)=NC3)ccc1C(=O)O [Alisertib]; details: max 10 µM
Procedure, shortened: as §1

SN-38 = compound: CCc1c2c(nc3ccc(O)cc13)-c1cc3c(c(=O)n1C2)COC(=O)[C@]3(O)CC [SN-38]; details: max 0.3 µM
Procedure, shortened: as §1

AZD7648 = compound: Cc1cc2ncnn2cc1Nc1ncc2c(n1)n(C1CCOCC1)c(=O)n2C [AZD7648]; details: max 10 µM
Procedure, shortened: as §1

Selumetinib = compound: Cn1cnc2c(F)c(Nc3ccc(Br)cc3Cl)c(C(=O)NOCCO)cc21 [Selumetinib]; details: max 10 µM
Procedure, shortened: as §1

AZD4320 = compound: CN(CC[C@H](CSC1=CC=CC=C1)NC2=C(C=C(C=C2)S(=O)(=O)NC(=O)C3=CC=C(C=C3)N4CCC(CC4)[C@H](C5=CC=CC=C5C6=CC=C(C=C6)Cl)O)S(=O)(=O)C(F)(F)F)CCO [AZD4320]; details: max 1 µM
Procedure, shortened: as §1

Dasatinib = compound: CC1=C(C(=CC=C1)Cl)NC(=O)C2=CN=C(S2)NC3=CC(=NC(=N3)C)N4CCN(CC4)CCO [Dasatinib]; details: max 2 µM
Procedure, shortened: as §1

Venetoclax = compound: CC1(C)CCC(CN2CCN(c3ccc(C(=O)NS(=O)(=O)c4ccc(NCC5CCOCC5)c([N+](=O)[O-])c4)c(Oc4cnc5[nH]ccc5c4)c3)CC2)=C(c2ccc(Cl)cc2)C1 [Venetoclax]; details: max 1 µM
Procedure, shortened: as §1

Lapatinib = compound: CS(=O)(=O)CCNCc1ccc(-c2ccc3ncnc(Nc4ccc(OCc5cccc(F)c5)c(Cl)c4)c3c2)o1 [Lapatinib]; details: max 10 µM
Procedure, shortened: as §1

Capivasertib = compound: C1CN(CCC1(C(=O)N[C@@H](CCO)C2=CC=C(C=C2)Cl)N)C3=NC=NC4=C3C=CN4 [Capivasertib]; details: max 10 µM
Procedure, shortened: as §1

AZD5991 = compound: Cc1c2c(nn1C)CSCc1cc(n(C)n1)CSc1cc(c3ccccc3c1)OCCCc1c(C(=O)O)n(C)c3c-2c(Cl)ccc13 [AZD5991]; details: max 1 µM
Procedure, shortened: as §1

Gefitinib = compound: COc1cc2ncnc(Nc3ccc(F)c(Cl)c3)c2cc1OCCCN1CCOCC1 [Gefitinib]; details: max 10 µM
Procedure, shortened: as §1

SG3199 = compound: CC1=CN2[C@@H](C1)C=NC3=CC(=C(C=C3C2=O)OC)OCCCCCOC4=C(C=C5C(=C4)N=C[C@@H]6CC(=CN6C5=O)C)OC [SG3199]; details: max 0.001 µM
Procedure, shortened: as §1

Palbociclib = compound: CC(=O)c1c(C)c2cnc(Nc3ccc(N4CCNCC4)cn3)nc2n(C2CCCC2)c1=O [Palbociclib]; details: max 10 µM
Procedure, shortened: as §1

Trametinib = compound: CC(=O)Nc1cccc(-n2c(=O)n(C3CC3)c(=O)c3c(Nc4ccc(I)cc4F)n(C)c(=O)c(C)c32)c1 [Trametinib]; details: max 1 µM
Procedure, shortened: as §1

Prexasertib = compound: COc1cccc(OCCCN)c1-c1cc(Nc2cnc(C#N)cn2)n[nH]1 [Prexasertib]; details: max 1 µM
Procedure, shortened: as §1

Doxorubicin = compound: COc1cccc2c1C(=O)c1c(O)c3c(c(O)c1C2=O)C[C@@](O)(C(=O)CO)C[C@@H]3O[C@H]1C[C@H](N)[C@H](O)[C@H](C)O1 [Doxorubicin]; details: max 1 µM
Procedure, shortened: as §1

Taselisib = compound: Cc1nc(-c2cn3c(n2)-c2ccc(-c4cnn(C(C)(C)C(N)=O)c4)cc2OCC3)n(C(C)C)n1 [Taselisib]; details: max 10 µM
Procedure, shortened: as §1

AZD1390 = compound: CC(C)n1c(=O)n(C)c2cnc3cc(F)c(-c4ccc(OCCCN5CCCCC5)nc4)cc3c21 [AZD1390]; details: max 0.3 µM
Procedure, shortened: as §1

AZD2811 = compound: CCN(CCO)CCCOc1ccc2c(Nc3cc(CC(=O)Nc4cccc(F)c4)[nH]n3)ncnc2c1 [AZD2811]; details: max 1 µM
Procedure, shortened: as §1

AZD5153 = compound: COc1nnc2ccc(N3CCC(c4ccc(OCCN5CCN(C)C(=O)[C@H]5C)cc4)CC3)nn12 [AZD5153]; details: max 1 µM
Procedure, shortened: as §1

AZD1775 = compound: C=CCn1c(=O)c2cnc(Nc3ccc(N4CCN(C)CC4)cc3)nc2n1-c1cccc(C(C)(C)O)n1 [AZD1775]; details: max 3 µM
Procedure, shortened: as §1

AZD6738 = compound: C[C@@H]1COCCN1C2=NC(=NC(=C2)C3(CC3)[S@](=N)(=O)C)C4=C5C=CNC5=NC=C4 [AZD6738]; details: max 10 µM
Procedure, shortened: as §1

Cell Line | IC50, cell viability 72 h (Olaparib) [nM] | IC50, cell viability 72 h (Savolitinib) [nM] | IC50, cell viability 72 h (AZD8186) [nM] | IC50, cell viability 72 h (AZD0156) [nM] | IC50, cell viability 72 h (Crizotinib) [nM] | IC50, cell viability 72 h (Alisertib) [nM] | IC50, cell viability 72 h (SN-38) [nM] | IC50, cell viability 72 h (AZD7648) [nM] | IC50, cell viability 72 h (Selumetinib) [nM] | IC50, cell viability 72 h (AZD4320) [nM] | IC50, cell viability 72 h (Dasatinib) [nM] | IC50, cell viability 72 h (Venetoclax) [nM] | IC50, cell viability 72 h (Lapatinib) [nM] | IC50, cell viability 72 h (Capivasertib) [nM] | IC50, cell viability 72 h (AZD5991) [nM] | IC50, cell viability 72 h (Gefitinib) [nM] | IC50, cell viability 72 h (SG3199) [nM] | IC50, cell viability 72 h (Palbociclib) [nM] | IC50, cell viability 72 h (Trametinib) [nM] | IC50, cell viability 72 h (Prexasertib) [nM] | IC50, cell viability 72 h (Doxorubicin) [nM] | IC50, cell viability 72 h (Taselisib) [nM] | IC50, cell viability 72 h (AZD1390) [nM] | IC50, cell viability 72 h (AZD2811) [nM] | IC50, cell viability 72 h (AZD5153) [nM] | IC50, cell viability 72 h (AZD1775) [nM] | IC50, cell viability 72 h (AZD6738) [nM]
KMS-12-BM (Plasma Cell Myeloma) | > 10000 | > 1000 | > 3000 | > 3000 | 3540 | 3570 | 24.8 | > 10000 | > 10000 | 17.3 | > 2000 | 16.4 | 7080 | 9310 | 13.9 | > 10000 | > 1 | 3660 | > 1000 | 17 | 891 | 2430 | > 300 | > 1000 | 13.4 | 329 | 
MOLM-13 (Acute Myeloid Leukemia) | 6770 | > 1000 | > 3000 | > 3000 | 1230 | 52.7 | 3.55 | > 10000 | 4040 | 6.77 | 932 | 23.5 | > 10000 | 1870 | 46.5 | 4320 | > 1 | 605 | 24.2 | 5.31 | 40 | 6310 | > 300 | 18.9 | 28.9 | 160 | 584
NCI-H661 (Non-Small Cell Lung Carcinoma) | > 10000 | > 1000 | > 3000 | > 3000 | > 10000 | > 10000 | > 300 | > 10000 | > 10000 | > 1000 | > 2000 | > 1000 | > 10000 | > 10000 | > 1000 | > 10000 | > 1 | > 10000 | > 1000 | 46.8 | > 1000 | > 10000 | > 300 | > 1000 | > 1000 | 765 | > 10000
PC-3 (Prostate Carcinoma) | > 10000 | > 1000 | > 3000 | > 3000 | > 10000 | > 10000 | 82.7 | > 10000 | > 10000 | > 1000 | > 2000 | > 1000 | > 10000 | > 10000 | > 1000 | > 10000 | > 1 | > 10000 | > 1000 | > 1000 | > 1000 | > 10000 | > 300 | > 1000 | > 1000 | > 3000 | > 10000
RD (Rhabdomyosarcoma) | > 10000 | > 1000 | > 3000 | > 3000 | > 10000 | > 10000 | > 300 | > 10000 | > 10000 | 706 | > 2000 | > 1000 | > 10000 | > 10000 | > 1000 | > 10000 | > 1 | > 10000 | > 1000 | 465 | > 1000 | 2270 | > 300 | > 1000 | 951 | 1030 | > 10000
RPMI-8226 (Plasma Cell Myeloma) | > 10000 | > 1000 | > 3000 | > 3000 | > 10000 | 1410 | 59.6 | > 10000 | > 10000 | 150 | > 2000 | > 1000 | > 10000 | > 10000 | 88.2 | > 10000 | > 1 | 5790 | > 1000 | 30.5 | 599 | > 10000 | > 300 | > 1000 | 114 | 1600 | 2020
SK-GT-2 (Gastric Carcinoma) | > 10000 | > 1000 | > 3000 | > 3000 | > 10000 | > 10000 | > 300 | > 10000 | > 10000 | > 1000 | > 2000 | > 1000 | 1130 | > 10000 | > 1000 | 4890 | > 1 | > 10000 | > 1000 | 76.7 | > 1000 | 6640 | > 300 | > 1000 | > 1000 | 848 | > 10000
SNU-398 (Hepatocellular Carcinoma) | > 10000 | > 1000 | > 3000 | > 3000 | > 10000 | 4320 | > 300 | > 10000 | > 10000 | > 1000 | > 2000 | > 1000 | > 10000 | > 10000 | 150 | > 10000 | > 1 | > 10000 | 849 | 777 | > 1000 | > 10000 | > 300 | 801 | 941 | 701 | > 10000
